From ChEMBL document CHEMBL4507310, “Data for DCP probe A-1211212” (2021)

Assays:
[1] = biological target: Cyclin-dependent kinase-like 5 (Homo sapiens) (UniProt O76039); conditions: Compound concentration 1000.0 nM
[2] = biological target: Prostaglandin E2 receptor EP2 subtype (Homo sapiens) (UniProt P43116); experiment: EP2 (h) Eurofins-Cerep binding assay; parameters: ligand concentration 3 nM; conditions: filed as agonist, Compound concentration 10.0 uM
[3] = biological target: Dual specificity protein kinase TTK (Homo sapiens) (UniProt P33981); conditions: Compound concentration 1000.0 nM
[4] = biological target: Serine/threonine-protein kinase Nek3 (Homo sapiens) (UniProt P51956); conditions: Compound concentration 1000.0 nM
[5] = biological target: Mitogen-activated protein kinase kinase kinase kinase 4 (Homo sapiens) (UniProt O95819); conditions: Compound concentration 1000.0 nM
[6] = biological target: Serine/threonine-protein kinase ICK (Homo sapiens) (UniProt Q9UPZ9); conditions: Compound concentration 1000.0 nM
Rattus norvegicus = species: Rattus norvegicus; experiment: SKCa channel Eurofins-Cerep binding assay; parameters: ligand concentration 0.007 nM; conditions: filed as antagonist, Compound concentration 10.0 uM
[7] = biological target: Serine/threonine-protein kinase tousled-like 1 (Homo sapiens) (UniProt Q9UKI8); conditions: Compound concentration 1000.0 nM
[8] = test system: eIF-2-alpha kinase GCN2 (Homo sapiens), Q9P2K8 [S808G]; conditions: Compound concentration 1000.0 nM
[9] = biological target: MAP kinase-activated protein kinase 5 (Homo sapiens) (UniProt Q8IW41); conditions: Compound concentration 1000.0 nM
[10] = biological target: Motilin receptor (Homo sapiens) (UniProt O43193); experiment: motilin (h Eurofins-Cerep binding assay; parameters: ligand concentration 0.05 nM; conditions: filed as agonist, Compound concentration 10.0 uM
[11] = biological target: T1, Muscarinic acetylcholine receptor M2 (Homo sapiens) (UniProt P08172); conditions: Compound concentration 10.0 uM
T1 sequence (whole entry): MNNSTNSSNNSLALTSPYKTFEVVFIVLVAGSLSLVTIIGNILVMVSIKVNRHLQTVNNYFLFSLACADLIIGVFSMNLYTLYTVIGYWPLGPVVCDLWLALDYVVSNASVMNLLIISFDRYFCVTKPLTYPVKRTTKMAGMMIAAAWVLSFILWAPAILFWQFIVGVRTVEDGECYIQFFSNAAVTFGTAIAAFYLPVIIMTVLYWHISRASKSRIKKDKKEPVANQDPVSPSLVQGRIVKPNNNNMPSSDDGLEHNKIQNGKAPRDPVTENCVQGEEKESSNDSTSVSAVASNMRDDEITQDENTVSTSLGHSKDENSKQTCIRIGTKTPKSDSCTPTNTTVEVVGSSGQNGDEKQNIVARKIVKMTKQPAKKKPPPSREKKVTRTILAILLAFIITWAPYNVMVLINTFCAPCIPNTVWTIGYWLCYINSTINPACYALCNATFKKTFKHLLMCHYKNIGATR

[12] = biological target: Transient receptor potential cation channel subfamily M member 6 (Homo sapiens) (UniProt Q9BX84); conditions: Compound concentration 1000.0 nM
[13] = test system: Epidermal growth factor receptor (Homo sapiens), P00533 [UNDEFINED MUTATION]; conditions: Compound concentration 1000.0 nM
[14] = biological target: Tyrosine-protein kinase JAK3 (Homo sapiens) (UniProt P52333); conditions: Compound concentration 1000.0 nM
[15] = biological target: Homeodomain-interacting protein kinase 1 (Homo sapiens) (UniProt Q86Z02); conditions: Compound concentration 1000.0 nM
[16] = biological target: Proto-oncogene tyrosine-protein kinase ROS (Homo sapiens) (UniProt P08922); conditions: Compound concentration 1000.0 nM
[17] = biological target: T2, Alpha-2A adrenergic receptor (Homo sapiens) (UniProt P08913); experiment: Alpha2A (h) Eurofins-Cerep binding assay; parameters: ligand concentration 1 nM; conditions: filed as antagonist, Compound concentration 10.0 uM
T2 sequence (whole entry): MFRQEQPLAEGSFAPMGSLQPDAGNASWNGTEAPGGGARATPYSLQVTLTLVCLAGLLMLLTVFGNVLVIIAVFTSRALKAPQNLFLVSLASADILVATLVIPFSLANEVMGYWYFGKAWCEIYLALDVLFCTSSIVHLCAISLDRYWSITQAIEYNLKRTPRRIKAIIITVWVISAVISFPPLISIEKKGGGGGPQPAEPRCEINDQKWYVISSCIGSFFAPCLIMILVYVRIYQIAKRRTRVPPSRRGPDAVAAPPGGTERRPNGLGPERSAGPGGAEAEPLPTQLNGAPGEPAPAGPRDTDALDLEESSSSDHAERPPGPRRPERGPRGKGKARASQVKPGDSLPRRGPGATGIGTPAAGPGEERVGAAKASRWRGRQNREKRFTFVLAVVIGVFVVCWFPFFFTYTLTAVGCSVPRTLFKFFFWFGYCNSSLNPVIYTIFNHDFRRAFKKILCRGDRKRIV

[18] = test system: Proto-oncogene tyrosine-protein kinase receptor Ret (Homo sapiens), P07949 [M918T]; conditions: Compound concentration 1000.0 nM
[19] = biological target: GABA-A receptor; anion channel (Rattus norvegicus) (UniProt O09028+P15431+P18506+P18508+P19969+P20236+P23574+P23576+P28471+P28473+P30191+P62813+P63079+P63138+Q91ZM7+Q9ES14); experiment: BZD (central) Eurofins-Cerep binding assay; assay type: protein-complex assay; parameters: ligand concentration 0.4 nM; conditions: filed as agonist, Compound concentration 10.0 uM
[20] = biological target: Vascular endothelial growth factor receptor 1 (Homo sapiens) (UniProt P17948); conditions: Compound concentration 1000.0 nM
[21] = biological target: Mitogen-activated protein kinase 7 (Homo sapiens) (UniProt Q13164); conditions: Compound concentration 1000.0 nM
[22] = biological target: Serine/threonine-protein kinase MRCK alpha (Homo sapiens) (UniProt Q5VT25); conditions: Compound concentration 1000.0 nM
[23] = biological target: Tyrosine-protein kinase TXK (Homo sapiens) (UniProt P42681); conditions: Compound concentration 1000.0 nM
[24] = biological target: Histamine H4 receptor (Homo sapiens) (UniProt Q9H3N8); conditions: Compound concentration 10.0 uM
[25] = biological target: Atypical kinase COQ8A, mitochondrial (Homo sapiens) (UniProt Q8NI60); conditions: Compound concentration 1000.0 nM
[26] = test system: Epidermal growth factor receptor (Homo sapiens), P00533 [L858R]; conditions: Compound concentration 1000.0 nM
[27] = biological target: Histamine H1 receptor (Homo sapiens) (UniProt P35367); experiment: H1 (h) Eurofins-Cerep binding assay; parameters: ligand concentration 1 nM; conditions: filed as antagonist, Compound concentration 10.0 uM
[28] = biological target: MAP kinase-interacting serine/threonine-protein kinase 2 (Homo sapiens) (UniProt Q9HBH9); conditions: Compound concentration 1000.0 nM
[29] = biological target: Serine/threonine-protein kinase 38-like (Homo sapiens) (UniProt Q9Y2H1); conditions: Compound concentration 1000.0 nM
[30] = biological target: Serine/threonine-protein kinase VRK2 (Homo sapiens) (UniProt Q86Y07); conditions: Compound concentration 1000.0 nM
Chain of Serine/threonine-protein kinase VRK2 (Homo sapiens) (Q86Y07 whole entry): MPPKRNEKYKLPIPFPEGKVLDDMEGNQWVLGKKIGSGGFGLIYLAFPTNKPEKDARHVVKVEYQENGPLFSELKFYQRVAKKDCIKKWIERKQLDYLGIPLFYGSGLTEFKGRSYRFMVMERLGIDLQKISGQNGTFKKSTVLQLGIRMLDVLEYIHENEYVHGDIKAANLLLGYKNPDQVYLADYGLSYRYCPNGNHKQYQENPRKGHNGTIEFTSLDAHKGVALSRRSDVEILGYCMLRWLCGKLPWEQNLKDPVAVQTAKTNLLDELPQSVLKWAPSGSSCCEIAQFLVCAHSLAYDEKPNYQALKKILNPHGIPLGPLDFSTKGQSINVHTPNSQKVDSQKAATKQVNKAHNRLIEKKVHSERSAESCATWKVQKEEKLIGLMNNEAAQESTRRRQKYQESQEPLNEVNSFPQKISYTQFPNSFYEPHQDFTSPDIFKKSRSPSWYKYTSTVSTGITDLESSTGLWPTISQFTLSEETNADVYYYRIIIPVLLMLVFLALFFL

Chain of Serine/threonine-protein kinase tousled-like 1 (Homo sapiens) (Q9UKI8 whole entry): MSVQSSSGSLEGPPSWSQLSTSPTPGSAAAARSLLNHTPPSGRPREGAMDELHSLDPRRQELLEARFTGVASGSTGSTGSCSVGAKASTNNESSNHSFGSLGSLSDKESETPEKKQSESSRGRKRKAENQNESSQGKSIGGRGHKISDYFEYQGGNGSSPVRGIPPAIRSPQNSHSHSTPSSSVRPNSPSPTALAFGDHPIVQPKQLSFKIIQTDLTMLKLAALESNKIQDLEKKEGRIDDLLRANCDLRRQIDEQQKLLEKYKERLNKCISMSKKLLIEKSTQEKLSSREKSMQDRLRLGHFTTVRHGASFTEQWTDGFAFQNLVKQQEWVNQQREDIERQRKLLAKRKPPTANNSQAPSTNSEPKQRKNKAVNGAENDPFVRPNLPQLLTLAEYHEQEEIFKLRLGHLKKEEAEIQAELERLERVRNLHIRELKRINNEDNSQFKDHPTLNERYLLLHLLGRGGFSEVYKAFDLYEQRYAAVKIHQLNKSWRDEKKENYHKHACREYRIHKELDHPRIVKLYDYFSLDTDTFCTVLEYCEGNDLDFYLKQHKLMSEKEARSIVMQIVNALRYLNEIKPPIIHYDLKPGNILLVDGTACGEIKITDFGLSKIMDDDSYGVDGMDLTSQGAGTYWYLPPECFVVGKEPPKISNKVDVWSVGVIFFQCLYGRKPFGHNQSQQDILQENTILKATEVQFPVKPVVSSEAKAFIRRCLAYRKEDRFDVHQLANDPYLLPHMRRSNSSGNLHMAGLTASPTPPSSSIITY
Chain of Histamine H4 receptor (Homo sapiens) (Q9H3N8 whole entry): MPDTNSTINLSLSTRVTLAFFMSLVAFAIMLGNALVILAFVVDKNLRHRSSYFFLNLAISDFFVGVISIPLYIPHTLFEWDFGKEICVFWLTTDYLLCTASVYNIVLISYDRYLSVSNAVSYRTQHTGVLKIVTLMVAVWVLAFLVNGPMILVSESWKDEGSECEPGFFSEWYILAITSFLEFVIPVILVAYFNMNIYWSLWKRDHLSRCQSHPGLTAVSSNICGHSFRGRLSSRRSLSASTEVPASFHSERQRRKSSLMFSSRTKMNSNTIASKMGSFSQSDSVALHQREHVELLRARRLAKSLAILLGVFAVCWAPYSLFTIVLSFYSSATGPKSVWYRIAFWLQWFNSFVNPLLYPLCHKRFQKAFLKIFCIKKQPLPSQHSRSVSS
Chain of Proto-oncogene tyrosine-protein kinase receptor Ret (Homo sapiens), P07949 [M918T] (P07949 whole entry M918T): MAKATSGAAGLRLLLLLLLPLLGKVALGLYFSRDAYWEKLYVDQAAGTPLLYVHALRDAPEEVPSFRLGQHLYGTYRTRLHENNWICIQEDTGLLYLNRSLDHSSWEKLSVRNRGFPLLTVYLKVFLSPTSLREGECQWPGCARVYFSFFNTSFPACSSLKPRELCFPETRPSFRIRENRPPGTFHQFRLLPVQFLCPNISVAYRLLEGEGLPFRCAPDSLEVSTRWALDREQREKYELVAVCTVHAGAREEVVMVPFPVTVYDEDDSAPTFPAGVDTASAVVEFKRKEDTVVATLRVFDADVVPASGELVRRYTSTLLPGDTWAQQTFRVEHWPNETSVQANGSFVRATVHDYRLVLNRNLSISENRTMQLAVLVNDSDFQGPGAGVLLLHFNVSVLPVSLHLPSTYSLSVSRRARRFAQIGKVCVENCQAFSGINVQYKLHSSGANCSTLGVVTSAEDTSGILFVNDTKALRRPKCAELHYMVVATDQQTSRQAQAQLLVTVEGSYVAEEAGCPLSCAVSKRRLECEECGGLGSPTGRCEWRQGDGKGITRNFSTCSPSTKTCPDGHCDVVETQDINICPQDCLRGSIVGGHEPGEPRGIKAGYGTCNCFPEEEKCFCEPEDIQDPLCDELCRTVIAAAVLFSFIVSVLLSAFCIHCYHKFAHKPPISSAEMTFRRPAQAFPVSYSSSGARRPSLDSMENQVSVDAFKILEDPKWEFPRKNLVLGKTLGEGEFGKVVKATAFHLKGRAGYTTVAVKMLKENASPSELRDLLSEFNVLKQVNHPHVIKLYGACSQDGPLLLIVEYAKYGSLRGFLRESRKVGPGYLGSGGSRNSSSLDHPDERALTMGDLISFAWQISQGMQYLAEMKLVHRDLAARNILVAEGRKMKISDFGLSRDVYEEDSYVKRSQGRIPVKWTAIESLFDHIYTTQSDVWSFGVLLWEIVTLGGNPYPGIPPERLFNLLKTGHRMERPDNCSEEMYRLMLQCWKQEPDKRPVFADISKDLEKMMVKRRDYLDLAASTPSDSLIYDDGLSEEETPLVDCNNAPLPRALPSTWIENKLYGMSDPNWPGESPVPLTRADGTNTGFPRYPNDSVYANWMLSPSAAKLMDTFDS
Chain of Serine/threonine-protein kinase ICK (Homo sapiens) (Q9UPZ9 whole entry): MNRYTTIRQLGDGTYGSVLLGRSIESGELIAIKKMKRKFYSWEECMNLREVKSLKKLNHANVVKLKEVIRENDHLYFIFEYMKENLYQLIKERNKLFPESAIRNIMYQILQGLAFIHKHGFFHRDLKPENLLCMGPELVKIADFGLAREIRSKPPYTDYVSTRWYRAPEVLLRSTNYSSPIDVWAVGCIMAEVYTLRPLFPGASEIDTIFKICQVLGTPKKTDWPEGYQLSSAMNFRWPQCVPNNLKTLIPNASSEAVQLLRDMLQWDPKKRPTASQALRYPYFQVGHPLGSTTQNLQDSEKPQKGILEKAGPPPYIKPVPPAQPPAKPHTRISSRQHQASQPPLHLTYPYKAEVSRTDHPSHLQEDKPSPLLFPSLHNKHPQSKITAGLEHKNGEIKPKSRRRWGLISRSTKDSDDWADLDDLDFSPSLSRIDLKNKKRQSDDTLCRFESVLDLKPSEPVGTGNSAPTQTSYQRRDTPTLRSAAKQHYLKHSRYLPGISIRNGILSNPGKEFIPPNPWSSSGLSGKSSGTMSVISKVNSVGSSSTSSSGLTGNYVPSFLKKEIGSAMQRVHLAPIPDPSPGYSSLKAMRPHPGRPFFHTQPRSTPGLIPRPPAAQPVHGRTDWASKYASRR
Chain of Motilin receptor (Homo sapiens) (O43193 whole entry): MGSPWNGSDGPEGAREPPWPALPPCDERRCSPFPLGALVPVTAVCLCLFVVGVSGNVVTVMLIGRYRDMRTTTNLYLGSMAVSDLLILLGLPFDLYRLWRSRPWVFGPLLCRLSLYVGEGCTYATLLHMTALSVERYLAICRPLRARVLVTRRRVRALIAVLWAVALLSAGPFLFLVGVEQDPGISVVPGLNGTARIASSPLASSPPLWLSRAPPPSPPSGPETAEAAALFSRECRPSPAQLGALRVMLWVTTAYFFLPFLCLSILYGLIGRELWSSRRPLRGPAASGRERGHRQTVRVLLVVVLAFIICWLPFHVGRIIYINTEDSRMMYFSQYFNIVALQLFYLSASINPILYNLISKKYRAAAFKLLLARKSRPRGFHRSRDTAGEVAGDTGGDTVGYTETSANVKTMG
Chain of Mitogen-activated protein kinase 7 (Homo sapiens) (Q13164 2-816 limits assumed): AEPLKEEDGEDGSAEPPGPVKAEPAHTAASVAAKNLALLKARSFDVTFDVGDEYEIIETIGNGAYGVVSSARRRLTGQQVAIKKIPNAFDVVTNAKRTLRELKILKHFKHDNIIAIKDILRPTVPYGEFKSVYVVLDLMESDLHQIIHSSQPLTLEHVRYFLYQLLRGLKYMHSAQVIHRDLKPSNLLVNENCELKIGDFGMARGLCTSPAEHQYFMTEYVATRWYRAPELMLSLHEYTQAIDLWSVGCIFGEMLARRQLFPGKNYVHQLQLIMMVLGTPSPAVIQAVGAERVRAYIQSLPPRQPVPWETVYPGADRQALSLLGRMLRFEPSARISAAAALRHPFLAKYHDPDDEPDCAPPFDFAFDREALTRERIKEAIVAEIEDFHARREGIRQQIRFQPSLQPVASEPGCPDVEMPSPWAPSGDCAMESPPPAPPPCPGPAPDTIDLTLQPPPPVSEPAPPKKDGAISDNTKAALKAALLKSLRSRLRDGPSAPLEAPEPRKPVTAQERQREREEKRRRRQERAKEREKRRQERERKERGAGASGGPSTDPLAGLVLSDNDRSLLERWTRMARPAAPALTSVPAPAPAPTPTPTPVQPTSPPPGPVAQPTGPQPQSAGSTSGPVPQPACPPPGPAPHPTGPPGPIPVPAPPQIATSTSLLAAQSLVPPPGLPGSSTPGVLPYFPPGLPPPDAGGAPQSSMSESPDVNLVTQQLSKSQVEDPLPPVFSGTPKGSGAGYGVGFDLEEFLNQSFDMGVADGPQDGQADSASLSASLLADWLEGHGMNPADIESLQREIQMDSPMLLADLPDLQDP
Chain of Prostaglandin E2 receptor EP2 subtype (Homo sapiens) (P43116 whole entry): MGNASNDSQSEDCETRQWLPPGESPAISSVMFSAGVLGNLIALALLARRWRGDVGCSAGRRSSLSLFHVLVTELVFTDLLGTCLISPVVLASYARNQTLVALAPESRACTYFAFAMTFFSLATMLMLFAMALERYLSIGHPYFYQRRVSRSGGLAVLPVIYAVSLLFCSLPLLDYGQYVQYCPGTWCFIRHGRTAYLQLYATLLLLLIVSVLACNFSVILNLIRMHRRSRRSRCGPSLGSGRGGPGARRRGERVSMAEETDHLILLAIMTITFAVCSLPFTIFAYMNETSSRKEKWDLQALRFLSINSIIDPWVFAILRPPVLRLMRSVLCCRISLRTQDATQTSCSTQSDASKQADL

O=C(NS(=O)(=O)c1ccc(NCC2CCOCC2)c([N+](=O)[O-])c1)c1ccc(N2CCN(Cc3ccc(C(F)(F)F)cc3-c3ccc(Cl)cc3)CC2)cc1Oc1cnc2[nH]ccc2c1 [A-1210227]
-13%: % Inhibition of Control Specific Binding (Mean n=2) [10]
-4.8%: % Inhibition of Control Specific Binding (Mean n=2) (Rattus norvegicus)
4.2%: % Inhibition of Control Specific Binding (Mean n=2) [19]
-5.2%: % Inhibition of Control Specific Binding (Mean n=2) [17]
11.2%: % Inhibition of Control Specific Binding (Mean n=2) [27]
inactive: residual activity [1] 74% | residual activity [3] 100% | residual activity [4] 85% | residual activity [5] 95% | residual activity [6] 84% | residual activity [7] 100% | residual activity [8] 85% | residual activity [9] 81% | inhibition [11] 1.6% | residual activity [12] 89% | residual activity [13] 81% | residual activity [14] 85% | residual activity [15] 84% | residual activity [16] 87% | residual activity [18] 100% | residual activity [20] 100% | residual activity [21] 100% | residual activity [22] 96% | residual activity [23] 94% | inhibition [24] -2.4% | residual activity [25] 100% | residual activity [26] 90% | residual activity [28] 83% | residual activity [29] 93% | residual activity [30] 89%
24%: % Inhibition of Control Specific Binding (Mean n=2) [2]

CO[C@H]1CC[C@H](CNc2ccc(S(=O)(=O)NC(=O)c3ccc(N4CCN(CC5=C(c6ccc(Cl)cc6)CC(C)(C)CC5)CC4)cc3Oc3cnc4[nH]ccc4c3)cc2[N+](=O)[O-])CC1 [A-1211212]
-2.2%: % Inhibition of Control Specific Binding (Mean n=2) [27]
-20.5%: % Inhibition of Control Specific Binding (Mean n=2) [10]
-1%: % Inhibition of Control Specific Binding (Mean n=2) [19]
-11.2%: % Inhibition of Control Specific Binding (Mean n=2) [17]
-12.6%: % Inhibition of Control Specific Binding (Mean n=2) (Rattus norvegicus)
17.3%: % Inhibition of Control Specific Binding (Mean n=2) [2]
inactive: residual activity [1] 74% | residual activity [3] 82% | residual activity [4] 66% | residual activity [5] 100% | residual activity [6] 68% | residual activity [7] 82% | residual activity [8] 96% | residual activity [9] 82% | inhibition [11] -2.68% | residual activity [12] 87% | residual activity [13] 61% | residual activity [14] 84% | residual activity [15] 61% | residual activity [16] 72% | residual activity [18] 85% | residual activity [20] 85% | residual activity [21] 88% | residual activity [22] 56% | residual activity [23] 100% | inhibition [24] 4.94% | residual activity [25] 99% | residual activity [26] 60% | residual activity [28] 73% | residual activity [29] 94% | residual activity [30] 71%
